In patent US20170253601A1, “Substituted Pyrrolidine Compounds” (EPIZYME, INC., priority 2014, published 2017):

Target: T1, SMYD2 (Homo sapiens, UniProt Q9NRG4)
T1 construct: Full length SMYD2 (NP 064582.2) was cloned; His6 (N, cleaved yes); FLAG (N); made in house; host or cells: Sf9 insect cells
Assay: SMYD2 Biochemical Assay (3H-SAM, biotinylated peptide substrate, Flashplate)
Conditions: IC50 values are an average of n = 1 to n = 50; read-out: SMYD2 Biochem IC50 (μM)*
Method in brief: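 Full-length His/FLAG-tagged SMYD2 expressed in Sf9 cells with tag cleaved, 1.5 nM, pre-incubated 30 min at room temperature with compound, then 10 nM 3H-SAM and 60 nM biotinylated peptide added. Buffer 20 mM Bicine pH 7.6, 1 mM TCEP, 0.005% BSG, 0.002% Tween20, 2% DMSO. Stopped with 600 uM cold SAM; 3H-peptide captured on streptavidin Flashplate; IC50 by curve fit.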

T1 sequence (Q9NRG4 whole entry): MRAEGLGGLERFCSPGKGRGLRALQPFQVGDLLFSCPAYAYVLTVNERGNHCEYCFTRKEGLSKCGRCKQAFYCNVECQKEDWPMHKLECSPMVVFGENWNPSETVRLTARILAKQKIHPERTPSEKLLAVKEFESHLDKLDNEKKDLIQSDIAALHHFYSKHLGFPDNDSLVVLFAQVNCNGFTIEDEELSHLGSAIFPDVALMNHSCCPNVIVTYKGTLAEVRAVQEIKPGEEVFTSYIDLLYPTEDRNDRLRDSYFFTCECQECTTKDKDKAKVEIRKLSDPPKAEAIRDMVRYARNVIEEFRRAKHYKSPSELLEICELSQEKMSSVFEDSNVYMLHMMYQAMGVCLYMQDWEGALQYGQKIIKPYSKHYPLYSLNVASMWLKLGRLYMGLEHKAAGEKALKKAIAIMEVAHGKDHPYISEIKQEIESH

SMILES | IC50 [µM]
C[C@@H]1CN(c2ccncc2)C[C@H]1NC(=O)c1cc(C2CC2)on1 (racemic) [compound 313, (±)-trans-5-cyclopropyl-N-[4-methyl-1-(pyridin-4-yl)pyrrolidin-3-yl]-1,2-oxazole-3-carboxamide] | > 50
C[C@@H]1CN(c2ccnc(N)n2)C[C@H]1NC(=O)c1cc(C2CC2)on1 (racemic) [compound 314, (±)-trans-N-[1-(2-amino-pyrimidin-4-yl)-4-methylpyrrolidin-3-yl]-5-cyclopropyl-1,2-oxazole-3-carboxamide] | > 50
C[C@@H]1CN(c2ncccn2)C[C@H]1NC(=O)c1cc(C2CC2)on1 (racemic) [compound 315, (±)-trans-5-cyclopropyl-N-[4-methyl-1-(pyrimidin-2-yl)pyrrolidin-3-yl]-1,2-oxazole-3-carboxamide] | > 50
C[C@@H]1CN(c2ccncn2)C[C@H]1NC(=O)c1cc(C2CC2)on1 (racemic) [compound 316, (±)-trans-5-cyclopropyl-N-[4-methyl-1-(pyrimidin-4-yl)pyrrolidin-3-yl]-1,2-oxazole-3-carboxamide] | > 50
C[C@H]1CN(c2ccccn2)C[C@H]1NC(=O)c1cc(C2CC2)on1 (racemic) [compound 318, (±)-cis-5-cyclopropyl-N-[4-methyl-1-(pyridin-2-yl)pyrrolidin-3-yl]-1,2-oxazole-3-carboxamide] | > 50
C[C@H]1CN(c2ccncc2)C[C@H]1NC(=O)c1cc(C2CC2)on1 (racemic) [compound 319, (±)-cis-5-cyclopropyl-N-[4-methyl-1-(pyridin-4-yl)pyrrolidin-3-yl]-1,2-oxazole-3-carboxamide] | > 50
C[C@H]1CN(Cc2c(Cl)cccc2Cl)C[C@H]1NC(=O)c1cc(C2CC2)on1 (racemic) [compound 322, (±)-cis-5-cyclopropyl-N-{1-[(2,6-dichloro-phenyl)methyl]-4-methylpyrrolidin-3-yl}-1,2-oxazole-3-carboxamide] | > 50
CC(=O)Nc1cccc(N2C[C@H](C)[C@H](NC(=O)c3cc(C4CC4)on3)C2)c1 (racemic) [compound 325, (±)-cis-5-cyclopropyl-N-[1-(3-acetamidophenyl)-4-methylpyrrolidin-3-yl]-1,2-oxazole-3-carboxamide] | > 50
C[C@H]1CN(Cc2ncc[nH]2)C[C@H]1NC(=O)c1cc(C2CC2)on1 (racemic) [compound 327, (±)-cis-5-cyclopropyl-N-[1-(1H-imidazol-2-ylmethyl)-4-methyl-pyrrolidin-3-yl]-1,2-oxazole-3-carboxamide] | 49.7
COc1cc(CN2C[C@H](C)[C@H](NC(=O)c3cc(C4CC4)on3)C2)cc(OC)c1 (racemic) [compound 333, (±)-cis-5-cyclopropyl-N-{1-[(3,5-dimethoxy-phenyl)methyl]-4-methylpyrrolidin-3-yl}-1,2-oxazole-3-carboxamide] | > 50
C[C@H]1CN(c2ccnc(N)n2)C[C@H]1NC(=O)c1cc(C2CC2)on1 (racemic) [compound 334, (±)-cis-N-[1-(2-amino-pyrimidin-4-yl)-4-methylpyrrolidin-3-yl]-5-cyclopropyl-1,2-oxazole-3-carboxamide] | > 50
CC(=O)Nc1ccccc1N1C[C@H](C)[C@H](NC(=O)c2cc(C3CC3)on2)C1 (racemic) [compound 335, (±)-cis-5-cyclopropyl-N-[1-(2-acetamido-phenyl)-4-methylpyrrolidin-3-yl]-1,2-oxazole-3-carboxamide] | > 50
C[C@H]1CN(c2cccnc2)C[C@H]1NC(=O)c1cc(C2CC2)on1 (racemic) [compound 336, (±)-cis-5-cyclopropyl-N-[4-methyl-1-(pyridin-3-yl)pyrrolidin-3-yl]-1,2-oxazole-3-carboxamide] | > 50
C[C@H]1CN(CC2CCN(C)CC2)C[C@H]1NC(=O)c1cc(C2CC2)on1 (racemic) [compound 338, (±)-cis-5-cyclopropyl-N-{4-methyl-1-[(1-methylpiperidin-4-yl)methyl]pyrrolidin-3-yl}-1,2-oxazole-3-carboxamide] | > 50
C[C@H]1CN(c2ncccn2)C[C@H]1NC(=O)c1cc(C2CC2)on1 (racemic) [compound 339, (±)-cis-5-cyclopropyl-N-[4-methyl-1-(pyrimidin-2-yl)pyrrolidin-3-yl]-1,2-oxazole-3-carboxamide] | > 50
C[C@H]1CN(c2ccncn2)C[C@H]1NC(=O)c1cc(C2CC2)on1 (racemic) [compound 340, (±)-cis-5-cyclopropyl-N-[4-methyl-1-(pyrimidin-4-yl)pyrrolidin-3-yl]-1,2-oxazole-3-carboxamide] | > 50
CC(C)N1C[C@H](C)[C@H](NC(=O)c2cc(C3CNC3)on2)C1 (racemic) [compound 342, (±)-cis-5-(azetidin-3-yl)-N-[4-methyl-1-(propan-2-yl)pyrrolidin-3-yl]-1,2-oxazole-3-carboxamide] | > 50
CC(C)N1C[C@H](C)[C@H](NC(=O)c2cc(C3CN(C)C3)on2)C1 (racemic) [compound 343, (±)-cis-N-[4-methyl-1-(propan-2-yl)pyrrolidin-3-yl]-5-(1-methylazetidin-3-yl)-1,2-oxazole-3-carboxamide] | > 50
CC(C)N1C[C@H](C)[C@H](NC(=O)c2cc(C3(O)COC3)on2)C1 (racemic) [compound 346, (±)-cis-5-(3-hydroxyoxetan-3-yl)-N-[4-methyl-1-(propan-2-yl)pyrrolidin-3-yl]-1,2-oxazole-3-carboxamide] | > 50
CCOC(=O)C(C)CN1C[C@@H](C)[C@H](NC(=O)c2cc(C3CC3)on2)C1 (relative stereo) [compound 128, trans-ethyl 3-[3-(5-cyclopropyl-1,2-oxazole-3-amido)-4-methylpyrrolidin-1-yl]-2-methylpropanoate] | > 50

Stronger by IC50, values ahead:

IC50 [µM] | SMILES
1.14 | CC(c1ccccc1)N1C[C@H](C)[C@H](NC(=O)c2cc(C3CC3)on2)C1 (mixture of isomers) [compound 317, (±)-cis-5-cyclopropyl-N-[4-methyl-1-(1-phenyl-ethyl)pyrrolidin-3-yl]-1,2-oxazole-3-carboxamide]
11.6 | Cc1nc[nH]c1CN1C[C@H](C)[C@H](NC(=O)c2cc(C3CC3)on2)C1 (racemic) [compound 320, (±)-cis-5-cyclopropyl-N-{4-methyl-1-[(4-methyl-1H-imidazol-5-yl)methyl]pyrrolidin-3-yl}-1,2-oxazole-3-carboxamide]
4.64 | C[C@H]1CN(Cc2ccc(Cl)cc2Cl)C[C@H]1NC(=O)c1cc(C2CC2)on1 (racemic) [compound 321, (±)-cis-5-cyclopropyl-N-{1-[(2,4-dichloro-phenyl)methyl]-4-methylpyrrolidin-3-yl}-1,2-oxazole-3-carboxamide]
9.34 | C[C@H]1CN(Cc2c[nH]c3cc(Cl)ccc23)C[C@H]1NC(=O)c1cc(C2CC2)on1 (racemic) [compound 324, (±)-cis-N-{1-[(6-chloro-1H-indol-3-yl)methyl]-4-methylpyrrolidin-3-yl}-5-cyclopropyl-1,2-oxazole-3-carboxamide]
1.67 | Cc1nn(C)cc1CN1C[C@H](C)[C@H](NC(=O)c2cc(C3CC3)on2)C1 (racemic) [compound 326, (±)-cis-5-cyclopropyl-N-{1-[(1,3-dimethyl-1H-pyrazol-4-yl)methyl]-4-methylpyrrolidin-3-yl}-1,2-oxazole-3-carboxamide]
2.65 | C[C@H]1CN(Cc2c[nH]cn2)C[C@H]1NC(=O)c1cc(C2CC2)on1 (racemic) [compound 328, (±)-cis-5-cyclopropyl-N-[1-(1H-imidazol-4-ylmethyl)-4-methyl-pyrrolidin-3-yl]-1,2-oxazole-3-carboxamide]
3.57 | C[C@H]1CN(Cc2cccc3c2OCO3)C[C@H]1NC(=O)c1cc(C2CC2)on1 (racemic) [compound 331, (±)-cis-N-[1-(2H-1,3-benzodioxol-4-ylmethyl)-4-methyl-pyrrolidin-3-yl]-5-cyclopropyl-1,2-oxazole-3-carboxamide]
24.2 | C[C@H]1CN(Cc2ccc3ncccc3c2)C[C@H]1NC(=O)c1cc(C2CC2)on1 (racemic) [compound 332, (±)-cis-5-cyclopropyl-N-[4-methyl-1-(quinolin-6-ylmethyl)pyrrolidin-3-yl]-1,2-oxazole-3-carboxamide]
10.6 | C[C@H]1CN(CCC2CCNCC2)C[C@H]1NC(=O)c1cc(C2CC2)on1 (racemic) [compound 337, (±)-cis-5-cyclopropyl-N-{4-methyl-1-[2-(piperidin-4-yl)ethyl]pyrrolidin-3-yl}-1,2-oxazole-3-carboxamide]
22.8 | CC(C)N1C[C@H](C)[C@H](NC(=O)c2cc(C#N)on2)C1 (racemic) [compound 341, (±)-cis-5-cyano-N-[4-methyl-1-(propan-2-yl)pyrrolidin-3-yl]-1,2-oxazole-3-carboxamide]
5.84 | CC(C)N1C[C@H](C)[C@H](NC(=O)c2cc(CC(F)F)on2)C1 (racemic) [compound 345, (±)-cis-5-(2,2-difluoro-ethyl)-N-[4-methyl-1-(propan-2-yl)pyrrolidin-3-yl]-1,2-oxazole-3-carboxamide]
6.68 | CC(C)N1C[C@H](C)[C@H](NC(=O)c2cc(C(F)(F)F)on2)C1 (racemic) [compound 348, (±)-cis-N-[4-methyl-1-(propan-2-yl)pyrrolidin-3-yl]-5-(trifluoromethyl)-1,2-oxazole-3-carboxamide]
20.8 | CCOC(=O)C(C)CN1C[C@H](C)[C@H](NC(=O)c2cc(C3CC3)on2)C1 (relative stereo) [compound 186, cis-ethyl 3-[3-(5-cyclopropyl-1,2-oxazole-3-amido)-4-methylpyrrolidin-1-yl]-2-methylpropanoate]
